Assay results from patent US20130116219A1, “ANTIMICROBIAL CARBOLINE COMPOUNDS” (ALCON RESEARCH, LTD., priority 2011, published 2013).
In brackets after ≈: the same amount, converted by molar mass.

Legend:
Ad5 [1] = experiment: Plaque reduction assay in A549 cells, Ad5; assay type: cell-based; conditions: unidentified adenovirus, A549, 168 h, read-out: Adenovirus Serotype EC50 (μg/mL) Ad5
Procedure: (§1) Compounds of the present invention were tested for potency against AdV serotypes Ad3, Ad4, Ad5, Ad7a, Ad8, Ad19, and Ad37 in a plaque reduction assay, a cell-based assay of AdV replication. Ad8, Ad19, and Ad37 are the serotypes most commonly associated with epidemic keratoconjunctivitis (EKC). Ad3, Ad4, and Ad7a are serotypes most commonly associated with follicular conjunctivitis and serotype Ad5 can replicate in the NZW rabbit model of adenoviral ocular keratitis. Ad3, Ad4, Ad5, Ad7a, Ad8, and Ad19 were recovered at the Charles T. Campbell Ophthalmic Microbiology Laboratory from patients presenting with typical adenoviral ocular disease. No clinical isolates of Ad37 were available, so the ATCC (American Type Culture Collection, Manassas, Va.) reference strain of Ad37 was used.
(§2) EC50 values (μg/ml) for inhibition of adenoviral replication were determined by plaque reduction assay. Briefly, cultured A549 cells were inoculated with approximately 100 pfu of the indicated adenovirus serotype. Inoculated cells were overlaid with methylcellulose medium containing Compound 2 at 100, 10, 1, 0.1, 0.01, and 0.001 μg/ml, and incubated at 37° C./5% CO2 for approximately 7 d. Plates were stained with gentian violet, and plaques were counted in a 25× dissecting microscope. IC50, the concentration that inhibited plaque formation by 50%, was estimated from plots of mean plaque count vs. concentration.

Ad5 [2] = experiment: Ad5 genome replication assay (cell-based QPCR) in A549 cells; conditions: Human adenovirus sp., A549, 72 h, read-out: Ad5 qPCR EC50 (μM)
Procedure: Compounds of the present invention were tested for potency against Ad5 in an Ad5 genome replication assay, a cell-based QPCR assay of Ad5 genome replication in A549 cells, a human lung carcinoma cell line. Serotype of human Ad5, used in this replication assay can also replicate in a NZW rabbit model of adenoviral ocular keratitis.
EC50 values (μM) for inhibition of adenoviral replication were determined by QPCR. Briefly, 10,000 cultured A549 cells were inoculated with 25,000 pfu/well for 3 hrs in 2% FBS F12-K A549 culture media. Following inoculation, A549 cells were treated with log unit dilutions of compound of Formula I (˜10 μM thru˜10 pM) in 10% FBS F12-K culture media with 0.3% DMSO for an additional 3 days. Cell viability was assessed with Alamar Blue (10 μl/well for 2 hrs; fluorescence Ex353; Em595 nm). Plates were washed 3 times with 125 μl PBS, cell lysates were prepared for QPCR analysis using Cells to SNP kit (Life Technologies). Ad5 genome levels per cell were determined with RNaseP and Ad5 hexon Taqman Assays (Life Technologies). EC50, the concentration that inhibited Ad5 genome replication formation by 50%, was estimated from plots of Ad5 genomes/cell vs. compound concentration.

Ad19 = experiment: Plaque reduction assay in A549 cells, Ad19; assay type: cell-based; conditions: unidentified adenovirus, 168 h, approximately 7 d, read-out: Adenovirus Serotype EC50 (μg/mL) Ad19
Procedure: as §1, §2

Ad37 = experiment: Plaque reduction assay in A549 cells, Ad37; assay type: cell-based; conditions: unidentified adenovirus, 168 h, approximately 7 d, ATCC reference strain, read-out: Adenovirus Serotype EC50 (μg/mL) Ad37
Procedure: as §1, §2

Ad7a = experiment: Plaque reduction assay in A549 cells, Ad7a; assay type: cell-based; conditions: unidentified adenovirus, 168 h, approximately 7 d, read-out: Adenovirus Serotype EC50 (μg/mL) Ad7a
Procedure: as §1, §2

Ad4 = experiment: Plaque reduction assay in A549 cells, Ad4; assay type: cell-based; conditions: unidentified adenovirus, 168 h, approximately 7 d, read-out: Adenovirus Serotype EC50 (μg/mL) Ad4
Procedure: as §1, §2

Ad8 = experiment: Plaque reduction assay in A549 cells, Ad8; assay type: cell-based; conditions: unidentified adenovirus, A549, 168 h, read-out: Adenovirus Serotype EC50 (μg/mL) Ad8
Procedure: as §1, §2

Ad3 = experiment: Plaque reduction assay in A549 cells, Ad3; assay type: cell-based; conditions: unidentified adenovirus, 168 h, approximately 7 d, read-out: Adenovirus Serotype EC50 (μg/mL) Ad3
Procedure: as §1, §2

## CC(C)C[C@H]1c2[nH]c3ccc(Cl)cc3c2CCN1C(=O)CCN1CCC(F)(F)CC1 [Compound 6, (S)-1-(6-chloro-1-isobutyl-3,4-dihydro-1H-pyrido[3,4-b]indol-2(9H)-yl)-3-(4,4-difluoropiperidin-1-yl)propan-1-one]
Ad5 [1]
  EC50: < 0.1 µg/mL
Ad5 [2]
  EC50: < 0.1 µM
Ad19
  EC50: < 0.1 µg/mL
Ad37
  EC50: < 0.1 µg/mL
Ad7a
  EC50: < 0.1 µg/mL
Ad4
  EC50: 0.1 to 1 µg/mL (≈ 0.228 to 2.28 µM)
Ad8
  EC50: < 0.1 µg/mL
Ad3
  EC50: < 0.1 µg/mL

## CC(C)C[C@H]1c2[nH]c3ccc(Cl)cc3c2CCN1C(=O)CCN1CC[C@H](F)C1 [Compound 35, 1-((S)-6-chloro-1-isobutyl-3,4-dihydro-1H-pyrido[3,4-b]indol-2(9H)-yl)-3-((S)-3-fluoropyrrolidin-1-yl)propan-1-one]
Ad5 [1]
  EC50: 0.1 to 1 µg/mL (≈ 0.246 to 2.46 µM)
Ad5 [2]
  EC50: 0.1 to 1 µM
Ad19
  EC50: 0.1 to 1 µg/mL (≈ 0.246 to 2.46 µM)
Ad37
  EC50: 0.1 to 1 µg/mL (≈ 0.246 to 2.46 µM)
Ad7a
  EC50: 0.1 to 1 µg/mL (≈ 0.246 to 2.46 µM)
Ad4
  EC50: > 1 µg/mL
Ad8
  EC50: 0.1 to 1 µg/mL (≈ 0.246 to 2.46 µM)
Ad3
  EC50: 0.1 to 1 µg/mL (≈ 0.246 to 2.46 µM)

## CC(C)C[C@H]1c2[nH]c3ccc(Cl)cc3c2CCN1C(=O)CCC1CCCCC1 [Compound 43, (S)-1-(6-chloro-1-isobutyl-3,4-dihydro-1H-pyrido[3,4-b]indol-2(9H)-yl)-3-cyclohexylpropan-1-one]
Ad5 [1]
  EC50: < 0.1 µg/mL
Ad5 [2]
  EC50: < 0.1 µM
Ad19
  EC50: < 0.1 µg/mL
Ad37
  EC50: < 0.1 µg/mL
Ad7a
  EC50: < 0.1 µg/mL
Ad4
  EC50: 0.1 to 1 µg/mL (≈ 0.249 to 2.49 µM)
Ad8
  EC50: < 0.1 µg/mL
Ad3
  EC50: 0.1 to 1 µg/mL (≈ 0.249 to 2.49 µM)

## CC(C)C[C@H]1c2[nH]c3ccc(Cl)cc3c2CCN1C(=O)C1CN(CCC(F)(F)F)C1 [Compound 47, (S)-(6-chloro-1-isobutyl-3,4-dihydro-1H-pyrido[3,4-b]indol-2(9H)-yl)(1-(3,3,3-trifluoropropyl)azetidin-3-yl)methanone]
Ad5 [1]
  EC50: 0.1 to 1 µg/mL (≈ 0.226 to 2.26 µM)
Ad5 [2]
  EC50: 0.1 to 1 µM
Ad19
  EC50: 0.1 to 1 µg/mL (≈ 0.226 to 2.26 µM)
Ad37
  EC50: 0.1 to 1 µg/mL (≈ 0.226 to 2.26 µM)
Ad7a
  EC50: 0.1 to 1 µg/mL (≈ 0.226 to 2.26 µM)
Ad4
  EC50: 0.1 to 1 µg/mL (≈ 0.226 to 2.26 µM)
Ad8
  EC50: 0.1 to 1 µg/mL (≈ 0.226 to 2.26 µM)
Ad3
  EC50: 0.1 to 1 µg/mL (≈ 0.226 to 2.26 µM)

## CC(C)C[C@H]1c2[nH]c3ccc(Cl)cc3c2CCN1C(=O)CCN1CCN(CC(F)F)CC1 [Compound 73, (S)-1-(6-chloro-1-isobutyl-3,4-dihydro-1H-pyrido[3,4-b]indol-2(9H)-yl)-3-(4-(2,2-difluoroethyl)piperazin-1-yl)propan-1-one]
Ad5 [1]
  EC50: 0.1 to 1 µg/mL (≈ 0.214 to 2.14 µM)
Ad5 [2]
  EC50: 0.1 to 1 µM
Ad19
  EC50: > 1 µg/mL
Ad37
  EC50: > 1 µg/mL
Ad7a
  EC50: 0.1 to 1 µg/mL (≈ 0.214 to 2.14 µM)
Ad4
  EC50: 0.1 to 1 µg/mL (≈ 0.214 to 2.14 µM)
Ad8
  EC50: 0.1 to 1 µg/mL (≈ 0.214 to 2.14 µM)
Ad3
  EC50: 0.1 to 1 µg/mL (≈ 0.214 to 2.14 µM)

## O=C(CCC1CCCCC1)N1CCc2c([nH]c3ccc(Cl)cc23)C1CN1CCC(F)(F)CC1 (stereo not shown) [Compound 78, 1-(6-chloro-1-1((4,4-difluoropiperidin-1-yl)methyl)-3,4-dihydro-1H-pyrido[3,4-b]indol-2(9H)-yl)-3-cyclohexylpropan-1-one]
Ad5 [2]
  EC50: 0.1 to 1 µM

## CC(C)CC1c2[nH]c3ccc(Cl)cc3c2CCN1CC(=O)NC1CCCCC1 (stereo not shown) [Compound 79]
Ad5 [2]
  EC50: 0.1 to 1 µM

## O=C(CCC1CCCCC1)N1CCc2c([nH]c3ccc(Cl)cc23)C1CN1CCCCC1 (stereo not shown) [Compound 80]
Ad5 [2]
  EC50: > 1 µM

## CC(C)CC1c2[nH]c3ccc(Cl)cc3c2CCN1C(=O)C1CN(c2ncccn2)C1 (stereo not shown) [Compound 81]
Ad5 [2]
  EC50: 0.1 to 1 µM

## Cc1nnc(CCC(=O)N2CCc3c([nH]c4ccc(Cl)cc34)C2CC(C)C)o1 (stereo not shown) [Compound 82]
Ad5 [2]
  EC50: 0.1 to 1 µM

## CC(C)C[C@H]1c2[nH]c3ccc(Cl)cc3c2CCN1C(=O)C1CCN(CC(F)F)CC1 [Compound 83]
Ad5 [2]
  EC50: 0.1 to 1 µM

## CC(C)CC1c2[nH]c3ccc(Cl)cc3c2CCN1C(=O)CN1CCC(F)(F)C1 (stereo not shown) [Compound 84]
Ad5 [2]
  EC50: 0.1 to 1 µM

## CC(C)CC1c2[nH]c3ccc(Cl)cc3c2CCN1C(=O)CN1CC(F)(F)C1 (stereo not shown) [Compound 85, 1-(6-chloro-1-isobutyl-3,4-dihydro-1H-pyrido[3,4-b]indol-2(9H)-yl)-2-(3,3-difluoroazetidin-1-yl)ethanone]
Ad5 [2]
  EC50: < 0.1 µM

## CC(C)CC1c2[nH]c3ccc(Cl)cc3c2CCN1C(=O)CNCCN1CCC(F)(F)CC1 (stereo not shown) [Compound 86]
Ad5 [2]
  EC50: > 1 µM

## CC(C)CC1c2[nH]c3ccc(Cl)cc3c2CCN1Cc1ccccn1 (stereo not shown) [Compound 87]
Ad5 [2]
  EC50: 0.1 to 1 µM

## CC(C)CC1c2[nH]c3ccc(Cl)cc3c2CCN1Cc1ccco1 (stereo not shown) [Compound 88]
Ad5 [2]
  EC50: 0.1 to 1 µM

## CC(C)CC1c2[nH]c3ccc(Cl)cc3c2CCN1C(=O)CNCc1ccco1 (stereo not shown) [Compound 89]
Ad5 [2]
  EC50: > 1 µM
